Assay results from publication PMC5889558, “The inhibition of human lung fibroblast proliferation and differentiation by Gs-coupled receptors is not predicted by the magnitude of cAMP response” (Respiratory Research, 2018).
Entries after “also recorded” stand apart in the source; their conditions may differ.

Columns and labels:
Assay type in all cases: cell-based
[1] = system: human lung fibroblasts (HLF); experiment: HLF proliferation by BrdU incorporation (DELFIA), driven by FBS or PDGF; conditions: for EC50 / Emax: Homo sapiens, Fibroblast, inhibition of BrdU incorporation, NC = not calculated due to incomplete curve; for EC50: mean ± SEM
Description: Proliferation of HLF was measured by incorporation of bromodeoxyuridine (BrdU). HLF were seeded overnight at 4000 cells/well in 96-well black ViewPlates, before being starved for 24 h in culture medium devoid of FBS. Proliferation was measured after incubation with a range of concentrations of FBS or PDGF, in DMEM supplemented with 0.1% w/v HSA, for 24 h.
For anti-remodelling assays using BrdU incorporation, cells were incubated for 24 h with a range of concentrations of test compounds in the presence of near maximal concentrations of FBS or PDGF in DMEM supplemented with 0.1% w/v HSA. Proliferation was assessed using the DELFIA BrdU incorporation assay kit following manufacturer protocol. Fluorescence was measured using a Packard EnVision plate reader. To account for the inter-assay variation in levels of proliferation in each experiment, data were normalized to the PDGF or FBS response.

[2] = system: human lung fibroblasts (HLF); experiment: cAMP accumulation in HLF (HitHunter or AlphaScreen); conditions: for EC50 / Emax: Homo sapiens, Fibroblast; for EC50: read-out: cAMP pEC50 (converted); for Emax: read-out: cAMP Emax (% max); for cAMP response (in words): acute cAMP accumulation
Description: HLF were grown to confluency in 96-well white ViewPlates, before incubation with a range of agonist concentrations, or vehicle, for 2 h at room temperature in HBSS with 5 mM HEPES, 0.1% w/v HSA, and 5 μM rolipram. […] Rolipram was excluded when measuring cAMP levels in response to PDE inhibitors. cAMP levels were measured using either HitHunter cAMP assay or AlphaScreen competition assay following manufacturer protocol, and were assessed on either a BMG LABTEK ClarioStar or a Packard EnVision plate reader. cAMP concentrations in each well were determined using a standard curve. To account for the inter-assay variation in levels of cAMP produced in each experiment, data were normalized to the maximal forskolin response.

[3] = system: human lung fibroblasts (HLF); experiment: Cell viability assay, caspase-3/7 as marker of apoptosis; conditions: 24 h
Description: Cell viability was measured using caspase-3/7 expression as a marker of apoptosis after treatment for 24 h with test compounds. HLF were seeded overnight at 6,000 cells/well in 96-well black ViewPlates, before being starved for 24 hours in culture medium devoid of FBS. Cells were incubated for 24 hours in the presence of test compounds at the top concentrations used in the proliferation assays, or in the presence of 100 nM staurosporine to induce apoptosis.
The presence of the apoptotic marker caspase-3/7 was detected by incubating cells with 8 μM CellEvent™ Caspase-3/7 Red Detection Reagent in dPBS with 5 % FBS, for 30 minutes at 37°C. […] Images were analyzed using a multi wavelength cell scoring algorithm within the MetaXpress 5.3 software, which measures cell number using stained nuclei, and percent of these cells positive for caspase-3/7 from Cy5 readouts. To account for the inter-assay variation in levels of caspase 3/7 detected in each experiment, data were normalized to the staurosporine response.
Statistical significance across treatment groups was determined by using the one-way ANOVA with Dunnett’s multiple-comparison post hoc test.

[4] = system: human lung fibroblasts (HLF); experiment: Fibroblast to myofibroblast transdifferentiation (FMT), αSMA immunofluorescence, TGFβ-driven; conditions: 48 h, TGFβ 0.3 ng/mL
Description: To assess the differentiation of fibroblasts to the myofibroblast phenotype, immunofluorescence was used to monitor increases in α smooth muscle actin (αSMA). HLF were seeded overnight at 1000 cells/well in 384-well black clear bottom plates, before being starved for 24 h growth medium devoid of FBS.
For anti-remodelling assays using FMT, cells were incubated for 48 h with a range of concentrations of test compounds and incubated for 48 h, at 37°C, 5% CO2 in the presence of a near maximal concentration of TGFβ (0.3 ng/mL), to promote differentiation in DMEM supplemented with 0.1% w/v HSA. Following stimulation, cells were fixed in 4% paraformaldehyde, washed 3× in PBS (with Ca^2+/Mg^2+), and incubated with permeabilising blocking buffer (dPBS (with Ca^2+/Mg^2+), 10% FBS (v/v), 0.1% Triton X-100 (v/v)) for 1 h at 37°C. Wells were then washed 3× in wash buffer (Tris Buffered Saline (TBS), 0.05% (v/v) Tween-20) and incubated with mouse anti-α SMA (1:1000 dilution in permeabilising blocking buffer) for 1 h at room temperature, with gentle shaking. Following 3× wash in wash buffer, wells were incubated with blocking buffer containing Hoechst to stain for nuclear DNA (2 μM), and FITC-conjugated Affini-pure goat […] IgG (1:1000 dilution in blocking buffer) for 30 min at 37°C. Fluorescence was then quantified on a widefield ImageXpress Micro microscope, with a Plan Fluor 20X objective, DAPI filter cube (excitation 400–418 nm, emission 435–470 nm), 50 ms exposure time for nuclei, and FITC filter cube (excitation 467–498 nm, emission 513–556 nm), 200 ms exposure time for αSMA.
To quantify increases in αSMA fluorescence, a standard Multi-Wavelength Cell Scoring algorithm was used in MetaXpress 5.3 software (Molecular Devices, California, USA). To account for the inter-assay variation in levels of αSMA expression produced in each experiment, data were normalized to the response to TGFβ.

[5] = 24 h, EC80 concentration of PDGF, read-out: Proliferation vs PDGF pEC50 (converted)
[6] = 24 h, EC80 concentration of serum, read-out: Proliferation vs serum pEC50 (converted)
[7] = 24 h, EC80 serum, percentage of maximal proliferation observed with serum, read-out: Proliferation vs serum Emax (% max)
[8] = HLF, 2 h, room temperature, 5 μM rolipram (excluded for PDE inhibitors), mean ± SEM, at least 3 experiments, NC = not calculated due to incomplete curve
[9] = HLF, 2 h, percentage of the maximal forskolin response, mean ± SEM, NC = not calculated due to incomplete curve

O=C(NOC[C@H](O)CO)c1ccc(F)c(F)c1Nc1ccc(I)cc1F [PD0325901] was tested, and the “inhibition of PDGF-mediated proliferation (in words)” value ([1]; 3 ng/mL PDGF) was “blocked PDGF-mediated proliferation of HLF”.
For COc1ccc(CC(C)NCC(O)c2ccc(O)c(NC=O)c2)cc1 (centres unmarked) [Formoterol], the EC50 [1, 5] was 0.832 nM, the EC50 [1, 6] was 0.263 nM and the EC50 ([2]; 2 h) was 0.417 nM. For the same compound, the “% cells positive for caspase-3/7, 1:10 dilution” value (“% cells positive … 1:10 dilution” below) ([3]; HLF, 1:10 dilution of top conc 100 nM) was 0.88 ± 0.48% and the “% cells positive for caspase-3/7, Top conc” value (from here on “% cells positive … Top conc”) ([3]; HLF, top conc 100 nM) was 0.67 ± 0.22%.
For CCCC1([C@H](O)C/C=C/[C@H]2[C@H](O)CC(=O)[C@@H]2CCCCCCC(=O)OC)CCC1 [Butaprost], the “maximal level of inhibition of serum-driven proliferation” value ([1]; BrdU, 24 h, near maximal FBS) was 29%, the EC50 [1, 6] was 64.6 nM and the Emax [1, 7] was 29.1 ± 7.29%. The EC50 [2, 8] was 1550 nM, the Emax [2, 9] was 8.76 ± 3.25% and the “% cells positive … 1:10 dilution” value ([3]; HLF, 1:10 dilution of top conc 10 μM) was 0.90 ± 0.39%. The “% cells positive … Top conc” value ([3]; HLF, top conc 10 μM, mean ± SEM, n=3) was 0.80 ± 0.29%.
For CC(C)Cn1c(=O)n(C)c(=O)c2[nH]cnc21 [IBMX], the “inhibition of FBS- and PDGF-driven proliferation (in words)” value ([1]; BrdU, 24 h, either stimulus) was “some inhibition of both proliferation and FMT at higher concentrations”, the “inhibition of TGFβ-driven FMT (in words)” value [4] was “full concentration-response curves could not be established; also recorded: some inhibition of both proliferation and FMT at higher concentrations” and the “cAMP response (in words)” value ([2]; HLF) was “no detectable cAMP accumulation; also recorded: did not observe any acute cAMP accumulation”.
CN[C@@H]1C[C@H]2O[C@@](C)([C@@H]1OC)n1c3ccccc3c3c4c(c5c6ccccc6n2c5c31)C(=O)NC4 [Staurosporine] was tested, and the “% cells positive … Top conc” value ([3]; HLF, top conc 100 nM) was 54.8 ± 13.6% and the “caspase-3/7 expression / apoptosis (in words)” value ([3]; HLF, one-way ANOVA with Dunnett's test) was “statistically significant cell apoptosis”.
In the case of O=C(O)COc1cccc(-c2ocnc2-c2nc(-c3ccccc3)c(-c3ccccc3)o2)c1 [BMY-45778], the “cAMP pEC50” value [2, 8] is reported as 7.25 ± 0.09 and the “cAMP Emax (% max)” value [2, 9] is reported as 50.0 ± 4.59 % max.
CCCCC(C)(O)C/C=C/[C@H]1[C@H](O)CC(=O)[C@@H]1CCCCCCC(=O)OC (mixture of isomers) [Misoprostol] gave an Emax ([1]; 24 h, EC80 PDGF, percentage of maximal proliferation observed with PDGF, read-out: Proliferation vs PDGF Emax (% max)) of 94.1 ± 1.59%, an EC50 [1, 5] of 741 nM and an EC50 [1, 6] of 182 nM. The Emax [1, 7] was 34.7 ± 0.71%, the EC50 [2, 8] was 107 nM and the Emax [2, 9] was 52.4 ± 6.23%. For the same compound, the “% cells positive … 1:10 dilution” value ([3]; human, 1 μM) was 0.55 ± 0.04% and the “% cells positive … Top conc” value ([3]; human, 10 μM) was 0.54 ± 0.18%.
For CCNC(=O)[C@H]1O[C@@H](n2cnc3c(N)nc(NCCc4ccc(CCC(=O)O)cc4)nc32)[C@H](O)[C@@H]1O [CGS-21680], the “cAMP response (in words)” value ([2]; HLF) was “no detectable cAMP response”.
